Consider 13 molecules from paper PMC12566703, “Design, Synthesis, In Vitro and In Silico Biological Evaluation of New Pyridine-2,5-Dicarboxylates Esters Bearing Natural Source Fragments as Anti-Trypanosomatid Agents” (Pharmaceutics, 2025).

Values joined by “and” are separate entries in the source; they are usually repeats but may differ in a detail not shown here. Equal entries are not always repeated. Where two headings read alike, the source gives them in different places.

One data set relates to L. mexicana. Also noted: method as in doi:10.2174/1573407213666170405121810. Conditions: pyridine compound of Figure 1A; read-out: IC50, leishmanicidal activity; cited from earlier work.
For the next data set, the system named is Leishmania. Also noted: method as in doi:10.1016/j.molstruc.2018.11.017. Conditions: natural product scaffold of Figure 1B; read-out: IC50, leishmanicidal activity; cited from earlier work.
The subject of data set [1] is T. cruzi (A1) epimastigotes. As to the kind of experiment: In vitro trypanocidal activity, Alamar Blue assay, 48 h. The data set is classed as cell-based, Trypanosoma cruzi. To be noted: for Selectivity Index T. cruzi A1: CC50 (J774.2)/IC50; for IC50: Trypanosoma cruzi, 48 h, read-out: T. cruzi IC50 (µM ± SD) A1; for IC50 / Trypanocidal activity class in words, A1 strain: epimastigotes, A1 strain; for Trypanocidal activity class in words, A1 strain: classes by IC50. How it is done: (§1) Both strains were maintained in liver infusion tryptose (LIT) medium supplemented with 10% FBS and 0.1% penicillin-streptomycin. They were preserved by transferring 1 × 10^6 parasites/mL into a new culture medium every week. […] The metabolic activity was determined by the Alamar Blue assay. Briefly, after the incubation period, 20 µL of 2.5 mM resazurin solution was added to each well and incubated for 3 h. Three independent experiments were performed in triplicate. The half-maximum inhibitory concentration (IC50) was determined using probit analysis.
A general note: Resazurin is reduced to fluorescent resorufin, in cell work by metabolically active cells.

Data set [2] relates to T. cruzi (NINOA) epimastigotes. Described as above. The data set is classed as cell-based, Trypanosoma cruzi. Conditions: for IC50: 48 h, read-out: T. cruzi IC50 (µM ± SD) NINOA; for IC50 / Trypanocidal activity class in words, NINOA strain: epimastigotes, NINOA strain; for Selectivity Index T. cruzi NINOA: CC50 (J774.2)/IC50; for Trypanocidal activity class in words, NINOA strain: classes by IC50. How it is done: as §1

The subject of data set [3] is L. mexicana (MHOM/MX/2017/UABJO17FCQEPS) (FCQEPS) promastigotes. As to the kind of experiment: In vitro leishmanicidal activity, MTT method, 48 h. The data set is classed as cell-based, Leishmania mexicana. Conditions: for Selectivity Index L. mexicana FCQEPS: CC50 (J774.2)/IC50; for IC50: 48 h, read-out: L. mexicana IC50 (µM ± SD) FCQEPS; for IC50 / Leishmanicidal activity class in words, FCQEPS strain: promastigotes, FCQEPS strain; for Leishmanicidal activity class in words, FCQEPS strain: classes by IC50. How it is done: (§2) To determine the leishmanicidal activity of pyridine-2,5-dicarboxylates, the parasites, in their logarithmic growth phase (5 × 10^5 parasites/mL), were cultured in 96-well microliter plates with the corresponding pyridine-2,5-dicarboxylate compound at different concentrations (0.78–100 µM). Compounds were dissolved in DMSO in a final volume of 200 µL for 48 h at 26 °C. Parasites treated with DMSO (0.2%) were used as a negative control, while treatments with Glucantime and Amphotericin B, at the same concentrations, were used as positive controls. The metabolic activity of the cells was determined using the 3-(4,5-Dimethylthiazol-2-yl)-2,5-diphenyltetrazolium bromide (MTT) method. IC50 was determined using probit analysis. Three independent experiments were performed in triplicate, and the data were analyzed for statistical significance (p < 0.05) using Biostat 5.3.0 software.
(Tetrazolium dyes change colour on reduction, which living cells bring about.)

Data set [4] has as its system L. mexicana (MNYC/BZ/62/M379) (M379) promastigotes. Kind of data set: In vitro leishmanicidal activity, MTT method, 48 h. It counts as cell-based, Leishmania mexicana. To be noted: for Selectivity Index L. mexicana M379: CC50 (J774.2)/IC50; for IC50: 48 h, read-out: L. mexicana IC50 (µM ± SD) M379; for IC50 / Leishmanicidal activity class in words, M379 strain: promastigotes, M379 strain; for Leishmanicidal activity class in words, M379 strain: classes by IC50. How it is done: as §2

Data set [5] can be described thus: Cytotoxicity assay, MTT method, 48 h. The data set is classed as cell-based, murine. To be noted: mouse, J774.2 macrophage cells, J774.2 cell line, read-out: Macrophage J774.2 CC50 (µM ± SD). How it is done:
(§3) A cytotoxicity assay was performed using the murine macrophage J774.2 cell line, which was recloned from the original ascites and solid tumor J774.1 (according to the manufacturer). The cells were cultured in RPMI medium supplemented with 10% SBF, 100 U […] penicillin, 100 µg/mL streptomycin, and glutamine (2 mM), and 5% CO2 atmosphere. The medium was changed every 2–3 days. Macrophages were used at 1 × 10^6 cells and were incubated with compounds at different concentrations (0.75–100 µM, respectively) at 37 °C for 48 h in a 5% CO2 atmosphere. DMSO was used as a negative control (0.2%). The metabolic activity of macrophages was determined by the MTT method. The percentage of cell viability was calculated, and the half-maximal cytotoxic concentration (CC50) was determined using probit analysis. Three independent assays were conducted in triplicate.

The subject of a further data set is T. cruzi. To be noted: read-out: IC50, trypanocidal activity, cited from earlier work.
Data set [6] deals with murine macrophage J774.2 cell line. As to the kind of experiment: Cytotoxicity assay, MTT method, 48 h. It counts as cell-based. Conditions: read-out: Macrophage J774.2 CC50 (µM ± SD). How it is done: as §3

Broadly, the IC50 is the concentration that gives 50% inhibition. Turning to `Cc1ccc(O)c(C(=O)c2cnc3[nH]nc(C)c3c2)c1` [Compound 7], the IC50 in the data set on L. mexicana is 31 µM.
With `CC1=CC[C@H](C(C)(C)NC(=S)N/N=C/c2ccc([N+](=O)[O-])cc2)CC1` [Compound 8d], the IC50 in the data set on Leishmania was 2.4 µM.
As a reminder, the CC50 is the concentration giving 50% cytotoxicity. For the molecule `CCOC(=O)c1nc(C)c(C(=O)OCC23CC4CC(CC(C4)C2)C3)cc1-c1ccc(C)cc1` [Compound 10b], the “Selectivity Index T. cruzi A1” value in [1] is on record as greater than 1.8. The IC50 in data set [1] is 111 ± 1.14 µM; in [2] (Trypanosoma cruzi), less than 26.4 µM; in data set [2] it was 20.98 ± 0.15 µM; in [3] (Leishmania mexicana), 92.93 ± 0.02 µM; in data set [4] (Leishmania mexicana), greater than 200 µM. In addition, the “Selectivity Index L. mexicana FCQEPS” value in data set [3] is given as greater than 2.1. Besides, in data set [4], the “Selectivity Index L. mexicana M379” value is reported as greater than 1. Further, the CC50 at 48 h in [5] was greater than 200 µM.
For `CCOC(=O)c1nc(C)c(C(=O)OCC23CC4CC(CC(C4)C2)C3)cc1-c1ccc(F)cc1` [Compound 10c], the “Selectivity Index T. cruzi A1” value in data set [1] was greater than 5.2. The IC50 in data set [1] is 38.2 ± 2.86 µM; in data set [2] (Trypanosoma cruzi) it was 50.6 ± 1.06 µM; in data set [3] (Leishmania mexicana) it was greater than 200 µM; in data set [4] (Leishmania mexicana) it was less than 56 µM; in data set [4], 54.8 µM. Besides, in [2], the “Selectivity Index T. cruzi NINOA” value is recorded as greater than 4.0. For the same molecule, the “Selectivity Index L. mexicana FCQEPS” value in data set [3] is reported as greater than 1. Besides, the “Leishmanicidal activity class in words, FCQEPS strain” value in data set [3] is listed as “abolished their leishmanicidal activity”. In data set [4], the “Selectivity Index L. mexicana M379” value was greater than 3.6. For the same molecule, in [5], the CC50 at 48 h is greater than 200 µM.
Consider `Clc1ccc(-c2csc(N/N=C/c3ccccn3)n2)cc1Cl` [Compound 11], for which the IC50 in the data set on T. cruzi (pyridine compound of Figure 1A) is 4 µM.
As for `CCOC(=O)c1nc(C)c(C(=O)OCCC(C)CCC=C(C)C)cc1-c1ccccc1` (centres unmarked) [Compound 11a], the IC50 in data set [1] was greater than 200 µM; in data set [2] (Trypanosoma cruzi), greater than 200 µM; in [3] (Leishmania mexicana), 73 ± 1.78 µM; in [4] (Leishmania mexicana), greater than 200 µM. For the same molecule, the “Trypanocidal activity class in words, NINOA strain” value in [2] was “inactive”. For the same molecule, the “Selectivity Index L. mexicana FCQEPS” value in data set [3] amounted to 1.6. Moreover, in [4], the “Leishmanicidal activity class in words, M379 strain” value was “did not have antiparasitic activity”. In addition, the CC50 at 48 h in data set [5] is 119 ± 7.3 µM.
Regarding `CCOC(=O)c1nc(C)c(C(=O)OCCC(C)CCC=C(C)C)cc1-c1ccc(C)cc1` (centres unmarked) [Compound 11b], in data set [1], the “Selectivity Index T. cruzi A1” value was determined as 3.3. In addition, the IC50 in data set [1] was 51.6 ± 0.59 µM; in data set [2] (Trypanosoma cruzi), greater than 200 µM; in data set [3] (Leishmania mexicana), greater than 200 µM; in [4] (Leishmania mexicana), greater than 200 µM. The “Trypanocidal activity class in words, NINOA strain” value in data set [2] was “inactive”. In addition, the “Leishmanicidal activity class in words, M379 strain” value in [4] is “did not have antiparasitic activity”. In addition, in [5], the CC50 at 48 h amounted to 169 µM. Besides, in [6], the CC50 amounted to 169.8 ± 1.3 µM.
On to `CCOC(=O)c1nc(C)c(C(=O)OCCC(C)CCC=C(C)C)cc1-c1ccc(F)cc1` (centres unmarked) [Compound 11c], for which, in [1], the “Selectivity Index T. cruzi A1” value was greater than 8.0 and the IC50 came out at 24.9 ± 4.1 µM. In data set [2], the “Selectivity Index T. cruzi NINOA” value is greater than 2.5. Moreover, the IC50 in data set [2] (Trypanosoma cruzi) is 79.9 ± 2.6 µM. Besides, in [3], the “Selectivity Index L. mexicana FCQEPS” value is greater than 1 and the “Leishmanicidal activity class in words, FCQEPS strain” value is given as “abolished their leishmanicidal activity”. The IC50 in data set [3] (Leishmania mexicana) was greater than 200 µM. Moreover, in [4], the “Selectivity Index L. mexicana M379” value is greater than 1 and the “Leishmanicidal activity class in words, M379 strain” value was “inactive”. Besides, the IC50 in data set [4] (Leishmania mexicana) is greater than 200 µM. In addition, the CC50 at 48 h in [5] was greater than 200 µM.
For `CCOC(=O)c1nc(C)c(C(=O)OC/C=C(\C)CCC=C(C)C)cc1-c1ccccc1` [Compound 12a], in [1], the “Selectivity Index T. cruzi A1” value worked out at 0.2; the IC50 is 117.8 ± 0.94 µM; the “Trypanocidal activity class in words, A1 strain” value is “slight activity”. For the same molecule, in data set [2], the “Selectivity Index T. cruzi NINOA” value is reported as 0.2 and the “Trypanocidal activity class in words, NINOA strain” value was “slight trypanocidal activity”. The IC50 in data set [2] (Trypanosoma cruzi) is 106 ± 1.43 µM. In addition, the “Selectivity Index L. mexicana FCQEPS” value in [3] is listed as 0.3. Besides, in [3] (Leishmania mexicana), the IC50 amounted to 75.3 ± 4.28 µM. In addition, the IC50 in data set [4] (Leishmania mexicana) was greater than 200 µM. The “Leishmanicidal activity class in words, M379 strain” value in data set [4] is reported as “did not have antiparasitic activity”. The CC50 at 48 h in [5] came out at 25 ± 0.8 µM.
`CCOC(=O)c1nc(C)c(C(=O)OC/C=C(\C)CCC=C(C)C)cc1-c1ccc(C)cc1` [Compound 12b, (E)-5-(3,7-Dimethylocta-2,6-dien-1-yl) 2-ethyl 6-methyl-3-(p-tolyl)pyridine-2,5-dicarboxylate]: in data set [1], the “Selectivity Index T. cruzi A1” value is given as greater than 1; the IC50 was greater than 200 µM; the “Trypanocidal activity class in words, A1 strain” value is reported as “completely lose their trypanocidal activity”. For the same molecule, the “Selectivity Index T. cruzi NINOA” value in data set [2] is given as greater than 1. For the same molecule, the IC50 in data set [2] (Trypanosoma cruzi) was greater than 200 µM. Moreover, the “Selectivity Index L. mexicana FCQEPS” value in data set [3] was greater than 3.5. Also, the “Selectivity Index L. mexicana M379” value in [4] is greater than 3.6. For the same molecule, the CC50 at 48 h in data set [5] is greater than 200 µM.
Turning to `CCOC(=O)c1nc(C)c(C(=O)OC/C=C(\C)CCC=C(C)C)cc1-c1ccc(F)cc1` [Compound 12c], the “Selectivity Index T. cruzi A1” value in [1] was greater than 4.0. Besides, the IC50 in data set [1] was 50.1 ± 1 µM; in data set [2] (Trypanosoma cruzi), 49.1 ± 2.5 µM; in [3] (Leishmania mexicana), 114 ± 7.03 µM; in data set [4] (Leishmania mexicana), 85.98 ± 0.02 µM. The “Selectivity Index T. cruzi NINOA” value in data set [2] is given as greater than 4.1. In addition, the “Selectivity Index L. mexicana FCQEPS” value in data set [3] is recorded as greater than 1.7. Further, in [4], the “Selectivity Index L. mexicana M379” value is greater than 2.3. Also, the CC50 at 48 h in data set [5] is greater than 200 µM.
Take `CNC[C@H](O)[C@@H](O)[C@H](O)[C@H](O)CO.[O]=[Sb](=[O])[OH]` [Glc, Glucantime, reference compound]: the “Selectivity Index L. mexicana FCQEPS” value in [3] is 2.2; in [3] (listed as Glucantime) it was 2.18 and 2. Besides, the IC50 in data set [3] (listed as Glucantime) is greater than 125 µM; in data set [3], 125 ± 11.6 µM; in data set [4] (listed as Glucantime), 134 µM and > 125 µM; in data set [4] it was 134 ± 4.32 µM. Also, the “Selectivity Index L. mexicana M379” value came to 2.0 in data set [4] and 2.03 in data set [4] (listed as Glucantime). The CC50 in [6] came to 273 µM.
On to `CC1=CC[C@@H](C(C)(C)Nc2nnc(-c3ccc(C)cc3)s2)CC1` [TDZ 2], for which, in the data set on T. cruzi (natural product scaffold of Figure 1B), the IC50 was 1.3 µM.
